Laboratory results taken from patent US20240342198A1, “TREATMENT OF IR[…] SUBJECTS WITH AUTISM SPECTRUM DISORDERS WITH MODERATE TO SEVERE ANXIETY AND/OR SOCIAL AVOIDANCE” (ZYNERBA PHARMACEUTICALS, INC., priority 2021, published 2024).

Tests used:
[1] = tested on: patients with FXS and comorbid ASD; experiment: Pooled placebo-controlled data: Week 12 change in ABC-C Irritability, 156 subjects; type: in vivo, human; conditions: subgroup comparison
Text: The data collected from the studies presented herein, and other similar studies were pooled together and analyzed. […] The subjects had moderate to severe symptoms of ASD (ADOS-2, comparison score greater than, or equal to, 5). The data presented in Table 2 is the Week 12 change in ABC-C Irritability of all patients. In previous studies (such as presented in Example 1, Table 1) the data was enriched by removing the non-completers from the analysis and only presenting data from the completers.

[2] = tested on: children and adolescents with autism spectrum disorder; experiment: BRIGHT study: open-label safety, tolerability and efficacy study of ZYN002 transdermal gel, 14 weeks; type: in vivo, human; conditions: subgroup comparison
Experimental: An exploratory open-label safety, tolerability and efficacy study of Zygel™ ZYNO02 transdermal gel to 37 children and adolescents with autism spectrum disorder was conducted. The patient population (ages 4 through 17 years old) were predominantly moderate-to-severe ASD patients. ASD was confirmed by Diagnostic and Statistical Manual of Mental Disorders, 5th edition (DSM-5) diagnostic criteria to assess the safety and efficacy of ZYNO02 in treating ASD-related behaviors as measured by a variety of efficacy assessments. These included the Aberrant Behavior Checklist-Community (ABC-C); the Autism Diagnostic Observation Schedule®, 2nd Edition (ADOS-2); and the Parent Rated Anxiety Scale-Autism Spectrum Disorder (PRAS-ASD). ZYNO02 was administered to patients with moderate-to-severe symptoms of ASD as add-on therapy to their standard of care.
The majority of the patients were male (92%) with a mean age of 9.2 years. […] The majority of patients had moderate or severe ASD at baseline as measured by the ADOS®-2 comparison score (94%) and Diagnostic and Statistical Manual of Mental Disorders, 5th edition, severity levels (92%). […]
The trial evaluated multiple efficacy assessments, including the ABC-C, PRAS-ASD, Autism Parenting Stress Index, Autism Impact Measure (AIM), and Clinical Global Impression-Severity (CGI-S) and Improvement (CGI-I). […]

C=C(C)C1CCC(C)=CC1c1c(O)cc(CCCCC)cc1O (centres unmarked) [CBD, 2-[3-methyl-6-(1-methylethenyl)-2-cyclohexen-1-yl]-5-pentyl-1,3-benzenediol]
improvement in irritability, ABC-CFXS Social Avoidance score > 7 compared to ≤ 7 [1]: twice as much improvement in irritability
improvement in irritability, PRAS score > 37 compared to ≤ 37 [2]: twice as much improvement in irritability
